40 compounds from ChEMBL document CHEMBL2417531, “The discovery of inhibitors of Fas-mediated cell death pathway using the combined computational method” (Bioorg Med Chem Lett, 2013) can be followed below.

As a reminder, the inhibition is the percentage by which the read-out fell short of the control. High values mean a strong effect, low ones a weak effect.

This assay has as its target T1, Tumor necrosis factor receptor superfamily member 6 (Rattus norvegicus) (UniProt Q63199).
T1 sequence (whole entry): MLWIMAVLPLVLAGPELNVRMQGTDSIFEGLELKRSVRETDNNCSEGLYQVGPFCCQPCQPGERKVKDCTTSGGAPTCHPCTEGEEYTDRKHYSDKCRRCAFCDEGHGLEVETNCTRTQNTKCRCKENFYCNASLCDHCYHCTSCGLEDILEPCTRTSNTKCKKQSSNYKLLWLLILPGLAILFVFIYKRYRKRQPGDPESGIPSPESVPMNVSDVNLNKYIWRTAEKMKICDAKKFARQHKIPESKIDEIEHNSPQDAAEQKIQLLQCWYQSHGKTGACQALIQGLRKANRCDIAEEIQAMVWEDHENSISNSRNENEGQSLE
As to the kind of experiment: Inhibition of Fas-mediated cell death in oxygen and glucose deprived rat H9c2 cells at 10 uM treated 30 mins before oxygen and glucose deprivation measured after 6 hrs by DAPI staining. It is filed as cell-based.
`COC(=O)c1ccccc1NC(=O)CSc1ccccn1` came in with an inhibition of 7.9%.

In turn, `COC(=O)c1sccc1NC(=O)COc1ccc(Br)cc1` registered an inhibition of 10.8%.

In turn, `COC(=O)c1sc2ncccc2c1NC(=O)CCSc1ccccn1` returned an inhibition of 4.95%.

On to `COC(=O)c1cc(Br)cc(Br)c1NC(=O)CCSc1ccccn1`, for which the inhibition was 11.4%.

Turning to `COC(=O)c1oc2cccc(Cl)c2c1NC(=O)CSc1ccc(Br)cc1`, the inhibition was 14.7%.

With `COC(=O)c1ccsc1NC(=O)CSc1ccccc1`, the inhibition was 8.38%.

For the compound `COC(=O)c1sccc1NC(=O)CSc1ccc(Br)cc1`, the inhibition turned out to be 4%.

`COC(=O)c1ccsc1NC(=O)CSc1ccc(Br)cc1`: the inhibition amounted to 9%.

`COc1cc(NC(=O)CSc2ccc(Br)cc2)c(C2=NCCO2)cc1OC`: the inhibition was 11.9%.

With `COC(=O)c1sccc1NC(=O)CSc1cccc(OC)c1`, the inhibition was found to be 6.18%.

In turn, `COC(=O)c1oc2cccc(Cl)c2c1NC(=O)CSc1ccccn1` had an inhibition of 7.33%.

Compound `COC(=O)c1ccc(Cl)cc1NC(=O)CSc1ccc(Br)cc1` displayed an inhibition of 12%.

`COc1cc(C(=O)O)c(NC(=O)CCSc2ccccn2)c(OC)c1OC` came in with an inhibition of 28.6%.

For `COC(=O)c1c(NC(=O)CSc2ccccc2N)cnn1CCc1ccccc1`, the inhibition was determined as 5.4%.

`COC(=O)c1c(NC(=O)CSc2ccc(Br)cc2)cnn1CCc1ccccc1` had an inhibition of 5.41%.

For `CN(C)C(=O)c1sccc1NC(=O)CSc1ccc(Br)cc1`, the inhibition worked out at 10.4%.

For the compound `Cc1csc(C(=O)O)c1NC(=O)CSc1ccc(Br)cc1`, the inhibition came out at 14.3%.

`O=C(CSc1ccc(Br)cc1)Nc1ccccc1C(=O)O` had an inhibition of 30.9%.

In the case of `O=C(CSc1ccc(Br)cc1)Nc1c(Br)cc(Br)cc1C(=O)O`, the inhibition is 16.1%.

`COC(=O)c1nn(CCc2ccccc2)cc1NC(=O)CCc1ccccc1` registered an inhibition of 3.99%.

Take `O=C(O)c1cc(Cl)ccc1NC(=O)C(Sc1ccc(Br)cc1)c1ccccc1` (stereo not given): the inhibition was determined as 27.4%.

On to `COC(=O)c1ccccc1NC(=O)CSc1ccccc1`, for which the inhibition amounted to 6.05%.

The compound `COC(=O)c1sccc1NC(=O)CSc1ccccc1` showed an inhibition of 9.48%.

Turning to `COC(=O)c1cc(OC)c(OC)c(OC)c1NC(=O)CCSc1ccccn1`, the inhibition was 13.5%.

For `COC(=O)c1c(NC(=O)CSc2cccc(OC)c2)cnn1CCc1ccccc1`, the inhibition is 4.17%.

The compound `COC(=O)c1c(NC(=O)CSc2ccc([N+](=O)[O-])cc2)cnn1CCc1ccccc1` came in with an inhibition of 4.5%.

The compound `COC(=O)c1sccc1NC(=O)CCSc1ccc(Br)cc1` displayed an inhibition of 16.9%.

Turning to `O=C(CSc1ccc(Br)cc1)Nc1c(C(=O)O)oc2ccccc12`, the inhibition amounted to 8.47%.

`COC(=O)c1sccc1NC(=O)CCSc1ccccc1` registered an inhibition of 5.24%.

On to `COC(=O)c1oc2ccccc2c1NC(=O)CSc1ccc(Br)cc1`, for which the inhibition came out at 7.57%.

With `COC(=O)c1ccsc1NC(=O)CCSc1ccc(Br)cc1`, the inhibition was 6.45%.

In turn, `COC(=O)c1sc2ccccc2c1NC(=O)CCSc1ccc(Br)cc1` gave an inhibition of 8.57%.

`COC(=O)c1sc2ccccc2c1NC(=O)CSc1ccccc1`: the inhibition was 7.94%.

Compound `COC(=O)c1cc(OC)c(OC)cc1NC(=O)CCSc1ccccn1` yielded an inhibition of 17.5%.

For `COC(=O)c1sccc1NC(=O)CSc1ccc(OC)cc1`, the inhibition was 10.8%.

Regarding `COC(=O)c1sccc1NC(=O)CN(C)c1ccccc1`, the inhibition was found to be 7.57%.

As to `COC(=O)c1cc(Br)cc(Br)c1NC(=O)C(Sc1ccc(Br)cc1)c1ccccc1` (stereo not given), the inhibition was determined as 21.3%.

Regarding `COC(=O)c1nn(CCc2ccccc2)cc1NC(=O)COc1ccc(Br)cc1`, the inhibition turned out to be 2.97%.

On to `O=C(CCSc1ccccn1)Nc1cc(Cl)ccc1C1=NCCO1`, for which the inhibition was found to be 23.2%.

Compound `COC(=O)c1ccc(Cl)cc1NC(=O)CCSc1ccccn1` gave an inhibition of 12.8%.
